A short description of data set [1]: Preformulation stability of pregabalin with physically admixed non-reducing saccharides (appearance, scent). Format: physicochemical.

The structures appear in SMILES notation. Where two headings read alike, the source gives them in different places. A value given as a limit tells only on which side of the number the result lay.

In the case of `CC(C)CC(CN)CC(=O)O` (stereo not drawn) [Pregabalin, 5-methyl-3-aminomethyl-hexanoic acid], the Scent entry in data set [1] (40° C./75% RH/4 Weeks/open), in data set [1] (50° C./4 Weeks/closed) and in data set [1] (Initial) was “Odourless” in each case. Besides, the “% Known Impurities Lactum RRT = 3.91” value by setting is: (40° C./75% RH/4 Weeks/open) 0.004%; (60° C./2 Weeks/closed) 0.006%; (Initial) less than 0.0003%.
